Experimental findings from a melting point compilation (Tetko et al.; mined from patent text by program, amines drawn as free bases though some values may be those of a salt) are described below.

Structures are written as SMILES.

As for `O=C(CCc1cc(Br)c(OC(=O)c2c3ccccc3nc3ccccc23)c(Br)c1)ON1C(=O)CCC1=O`, the melting point – broadly, the temperature of the solid-liquid transition – was in the range of 175 to 176 °C.

`COc1cccc(-c2cnc3[nH]cc(C(=O)C4(C)CCCCC4)c3n2)c1` registered a melting point of 173 to 175 °C. As for `CC(=O)Nc1ccc(NC(=O)c2ccc(-c3[nH]nc4c3C(=O)c3c(NC(=O)NN5CCOCC5)cccc3-4)s2)cc1`, the melting point lay in the range of 253 to 254 °C. Then `COc1ccc(Cc2ccc3c(c2)OCO3)cc1C`, with 95 °C; and `COC(=O)C1=Cc2cc(OCc3ccc(F)cc3)ccc2S(=O)(=O)CC1`, with 141 to 143 °C; and `CCC(=O)OCc1ccc(-c2[nH]c(-c3cccc4ccccc34)nc2C(=O)Nc2nccs2)cc1`, with 281 to 283 °C. `c1ccc2c(c1)SCCc1c-2n(CCCN2CCCCC2)c2ccccc12` displayed a melting point of 84 to 87 °C. Turning to `N=C(NO)c1ccc(-c2cccc(-c3nc4cc(C(=N)NO)ccc4[nH]3)c2)cc1`, the melting point lay within 317 to 319 °C. To `Cc1cc(I)cc2c(=O)[nH]oc12` belongs 232 to 233 °C; to `COc1cc(C(=O)NS(=O)(=O)c2ccccc2C)ccc1Cc1cccc2ccc(C(N)=O)cc12`, 255 to 256 °C; to `O=C(NCC1CC2CCC1C2)n1cc(F)c(=O)[nH]c1=O` (stereo not drawn), 165 to 166 °C. To `CS(=O)(=O)Nn1c(=O)[nH]c2cc([N+](=O)[O-])c(N3CCOCC3)cc2c1=O` belongs more than 260 °C; to `O=C1Cc2ccccc2-c2cc(-c3ccccc3)nn21`, 181 to 183 °C; to `CC(=O)NN=Cc1ccc(N2CCN(C)CC2)nc1F`, 210 to 212 °C.

As for `CC(C)(C)NC(=O)[C@@H]1C[C@@H](O)CN1C(=O)OC(C)(C)C`, the melting point fell in the range of 192 to 193 °C. As for `COc1cc(C(=O)NC2CCN(C)CC2)c(F)cc1Nc1ncc2c(n1)N(C1CCCC1)CC(F)(F)C(=O)N2C`, the melting point fell in the range of 194 to 196 °C. Then `Cc1cc(C(C)C)c(C=O)[nH]1`, with 90 to 93 °C; and `COc1ccc2nc3cc(C(=O)O)ccn3c(=O)c2c1`, with 323 to 327 °C.

The molecule `CC(=O)N(Cc1ccccc1)c1c(F)c(F)cc(F)c1C(=O)O` displayed a melting point of 150 to 153 °C. To `O=c1[nH]c2cc(Cl)c(Cl)cc2[n+]([O-])c1-c1ccccc1` belongs 300 to 302 °C; to `CCCC[C@]12OC1CC[C@]1(C)CC[C@@H]3C[C@@]12OC3(C)C` (stereo partly drawn), 70 to 72 °C; to `COC(=O)CCC(=O)Nc1cccc2c1C(=O)N(C1CCC(=O)NC1=O)C2=O` (stereo not drawn), 224 to 226 °C. To `CCNC(=O)n1nc(Oc2ncc(Cl)cc2Cl)cc1C` belongs 74 to 76 °C. Then `COc1ccc(Cc2n[nH]c3c2c(=O)n(-c2ccccc2)c2ncccc32)cc1`, with 300 to 302 °C. For `N#CCC(=O)NC1CCCCC1NC(=O)CC#N` (stereo not drawn), the melting point fell in the range of 202 to 204 °C.

Take `C=C(C)OC1CCC(=O)N1S(=O)(=O)c1ccccc1` (stereo not drawn): the melting point lay within 54 to 56 °C.

In turn, `CC(C)C[C@H](NC(=O)N1CCCCCC1)C(=O)O` returned a melting point of 88 to 89 °C.

Molecule `C=Cc1cnc2c(NC(=O)c3c(Cl)cccc3Cl)cccc2c1CCO` returned a melting point of 133 to 135 °C. Take `CN(C)CCSc1nnc(SCN2C(=O)c3ccccc3S2(=O)=O)s1`: the melting point lay within 90.5 to 91.5 °C. To `O=C(c1ccc(Cl)cc1)N1CC2CC2(c2ccc(Cl)cc2)C1` (stereo not drawn) belongs 88 to 92 °C; to `O=C(c1ccccc1F)c1cc(Cl)ccc1C=CCN1C(=O)c2ccccc2C1=O`, 117 °C. Then `COC(=O)c1ncc(O)c2c1[nH]c1ccccc12`, with 241 to 242 °C. Then `C=C(CN(C)C)C(O)c1ncc2c(c1O)COC2C1CCCCC1` (stereo not drawn), with 180 to 184 °C; and `COC(=O)CCc1ccc(NC(=O)N(NC(=O)c2ccccc2)c2ccc(C#N)cc2)cc1`, with 76 to 81 °C. `NC1CCC(CC2CCC(Nc3ncc4ncnc(Nc5ccc(F)c(Cl)c5)c4n3)CC2)CC1` (stereo not drawn) displayed a melting point of 164 to 166 °C.

Consider `CCCCCCCCCCCCOc1ccc(NC(=O)C(=O)OCC)cc1`, for which the melting point lay within 70.5 to 72 °C. To `O=C(O)CCC(=O)c1ccc2c(c1)CNC(=O)N2` belongs 176 to 180 °C; to `CCc1nc2c(N)nc3cc(CCCNS(C)(=O)=O)ccc3c2n1CC1CCOCC1`, 168 to 170 °C; to `Nc1cccc(S(=O)(=O)NC(=O)c2ccccc2)c1`, 160 to 162 °C. Take `O=C(O)CCn1c(=O)n(CCCCN2CCC(OC(c3ccccc3)c3ccccc3)CC2)c(=O)c2ccccc21`: the melting point was in the range of 110 to 112 °C. The molecule `Cc1cccc(NC(=O)c2cc(Cl)cc(C)n2)n1` returned a melting point of 130 °C.

As for `ClC12CC3CC(CC(C3)C1=C1C3CC4CC(C3)CC1C4)C2`, the melting point is 142 to 143 °C. `CN(C)CCCOc1ccc(N(C(=O)c2ccc(F)cc2)c2ccccc2)cc1` had a melting point of 82.5 to 83.5 °C. Consider `CCOC(=O)C=Cc1cc(OCc2ccccc2)ccc1-c1ccc(-c2cccnc2)c(C(F)F)c1`, for which the melting point fell in the range of 93 to 95 °C. Then `Cc1cc(C2=NN(c3nccs3)[C@H](C)Cc3cc4c(cc32)OCO4)cc(C)c1[N+](=O)[O-]`, with 167 °C; and `Cn1nc(-c2c(Cl)cccc2Cl)nc1-c1cccnc1Cl`, with 133 to 136 °C; and `NC(=O)Cc1ccc(-c2ccc(C(CC3CCOCC3)c3ccc(S(=O)(=O)C4CC4)cc3)[nH]2)nc1` (stereo not drawn), with 151 to 153 °C. `O=[N+]([O-])c1nccn1CCI` showed a melting point of 79 to 82 °C. To `Cc1cc(C)c(COc2cccc3c2C(=O)c2c(Cl)ccc4c2c-3nn4CCNCCO)c(C)c1` belongs 147 to 158 °C; to `CCOC(=O)c1oc2cccc(C(C)OC)c2c1C` (stereo not drawn), 67 to 69 °C. To `COC(=O)C(CNC(C)=O)C1CCC(C(C)(C)C)CC1` (stereo not drawn) belongs 73 to 75 °C.

In turn, `Cc1ccccc1C=C1CCn2c1nc1ccc(C#N)cc1c2=O` returned a melting point of 234 to 236 °C. The molecule `C[C@H](C(=O)O)n1nc(O)c2[nH]c3cc(Cl)ccc3c(=O)c2c1=O` returned a melting point of more than 275 °C. `CCc1cc(CO)nn1-c1ccc([N+](=O)[O-])cc1` returned a melting point of 151 to 152 °C. Consider `CC(C)C1Cc2cc(OCC(=O)O)c(Cl)c(Cl)c2C1=O` (stereo not drawn), for which the melting point lay in the range of 161 to 164 °C.

As for `COc1ccc(C(NC(=O)C(C)c2ccccc2)c2cccc(Nc3c(N)c(=O)c3=O)c2)cc1` (stereo not drawn), the melting point lay in the range of 206 to 209 °C. Take `O=C(O)[C@H](Cc1ccccc1)NS(=O)(=O)c1ccc(N2CCC(c3ccccc3)CC2)cc1`: the melting point lay in the range of 167 to 169 °C. The molecule `CCCCS(=O)(=O)NC(Cc1ccc(N2CCN(CCC3CCN(C(=O)OC(C)(C)C)CC3)C2=O)cc1)C(=O)OC` (stereo not drawn) returned a melting point of 124 to 126 °C. As for `COc1ccc(CNc2nc(-c3ccccc3)c(-c3ccc(=O)n(C(C)C)n3)nc2C(=O)O)cc1`, the melting point fell in the range of 216 to 217 °C. To `CC(C)(C)c1ccc(Oc2nc(Nc3cccc(C(=O)O)c3)nc(Oc3ccccc3)n2)cc1` belongs 245 to 247 °C; to `COCCSCC(=O)[C@H](Cc1ccccc1)NC(=O)[C@H](CC(C)C)NC(=O)OCc1ccccc1`, 68 to 69 °C; to `CCCCc1nn(C(C)C(=O)NC)c(=O)n1Cc1ccc(-c2ccccc2-c2nnn[nH]2)cc1` (stereo not drawn), 153 to 155 °C.

As to `O=c1cc(-c2ccc(F)cc2)oc(N2CCOCC2)c1`, the melting point is 216 to 217 °C. `COc1ccc2c(c1)Sc1ccccc1C(=S)N2` had a melting point of 239 to 241 °C. To `CNC(=O)NN=C(c1ccc([N+](=O)[O-])cc1)c1cc2c(cc1C[C@H](C)O)OCO2` belongs 238 °C; to `O=C(Cc1ccccn1)c1ccccc1[NH+]([O-])C(=O)c1ccccc1` (stereo not drawn), 192 to 194 °C; to `CCC1CC(=O)N(CCc2ccc(NC(=O)c3cnccn3)cc2)N=C1c1ccc(OC)c(OC)c1` (stereo not drawn), 202 °C. The molecule `Clc1ccc(-c2ncoc2-c2ccncc2)cc1Cl` gave a melting point of 142 °C.

Take `CCC(=O)c1ccc2c(c1)N(C(C)=O)c1ccccc1S2`: the melting point lay in the range of 146 to 147 °C. Molecule `CC(C)(C)OC(=O)c1ccc[nH]1` came in with a melting point of 87 to 89 °C. Then `O=C(O)COc1cccc(-c2n[nH]c3c2Cc2ccccc2-3)c1`, with 246 to 248 °C; and `Cc1csc2ncc(CO)n12`, with 161 to 162 °C; and `Clc1cc(COCc2cc(Cl)nc(Cl)c2)cc(Cl)n1`, with 69.1 °C. On to `Cc1ccc(-c2ccc3c(c2)C=C(C(=O)Nc2ccc(CN4CCCCC4)cc2)CC3)cc1`, for which the melting point fell in the range of 187 to 189 °C. Then `Cc1cc(O)nc2[nH]nc(C)c12`, with 233 to 235 °C; and `CCCCCCCCCCCCCCCCCCOc1cc(N(CC(=O)O)CC(=O)O)cc(S(=O)CC(=O)O)c1` (stereo not drawn), with 138 to 140 °C; and `O=C1CCc2cc(Cl)cc(Cl)c21`, with 119 to 120 °C.

Consider `CC[C@@H](c1ccc(C(F)(F)F)cc1)N(Cc1ccc(C(=O)OC)cc1)S(=O)(=O)c1ccc(Cl)cc1`, for which the melting point was in the range of 120 to 121 °C.

In turn, `COc1nccc2c(=O)n(C)c(-c3ccc(OC4CCN(C5CCC5)CC4)cc3)nc12` returned a melting point of 178 to 180 °C. With `CS(=O)(=O)c1cnc(Cl)c(CCC(=O)c2ccc(Cl)c(Cl)c2)c1`, the melting point fell in the range of 128 to 130 °C.

For `COc1ccc(CCn2cnc3ccc(-c4cccc(C(=O)NCCN5CCCC5)c4)nc32)cc1OC`, the melting point fell in the range of 106 to 107 °C. Then `C=CCSC1(C(F)(F)F)CN(CC)C(=O)Nc2ccc(Cl)cc21` (stereo not drawn), with 138 to 142 °C; and `O=C(NCc1ccc(Cl)cc1)c1cnc2c(F)cc(-c3cccs3)cc2c1O`, with 298 to 301 °C; and `N#CC=Cc1ccc(C(=O)O)cc1`, with 281 °C. `CC(=O)OCCCCCn1ccc(=O)c(O)c1C` came in with a melting point of 132 to 133 °C.

The molecule `CC(C)(C)N1CC(c2ccc([N+](=O)[O-])cc2)OC1=O` (stereo not drawn) displayed a melting point of 123 to 125 °C. To `CC(=O)Nc1ccc(OS(N)(=O)=O)cc1` belongs 180 to 181 °C; to `OCc1ccccc1NC1CCN(Cc2ccccc2)CC1`, 164 to 168 °C.
